From ChEMBL document CHEMBL5154747, “Discovery of new carbonic anhydrase IX inhibitors as anticancer agents by toning the hydrophobic and hydrophilic rims of the active site to encounter the dual-tail approach” (Eur J Med Chem, 2022)

Tests used:
CCRF-CEM = assay: Anticancer activity against human CCRF-CEM cells assessed as cell growth inhibition incubated for 48 hrs by SRB assay; format: functional
HL-60(TB) = assay: Anticancer activity against human HL-60(TB) cells assessed as cell growth inhibition incubated for 48 hrs by SRB assay; format: functional
K562 = assay: Anticancer activity against human K562 cells assessed as cell growth inhibition incubated for 48 hrs by SRB assay; format: functional; settings: read-out: LC50 (the source's name)
MOLT-4 = assay: Anticancer activity against human MOLT-4 cells assessed as cell growth inhibition incubated for 48 hrs by SRB assay; format: functional
RPMI-8226 = assay: Anticancer activity against human RPMI-8226 cells assessed as cell growth inhibition incubated for 48 hrs by SRB assay; format: functional
SR = assay: Anticancer activity against human SR cells assessed as cell growth inhibition incubated for 48 hrs by SRB assay; format: functional; settings: read-out: LC50 (the source's name)
A549 = assay: Anticancer activity against human A549 cells assessed as cell growth inhibition incubated for 48 hrs by SRB assay; format: functional
EKVX = assay: Anticancer activity against human EKVX cells assessed as cell growth inhibition incubated for 48 hrs by SRB assay; format: functional; settings: read-out: LC50 (the source's name)
HOP-62 = assay: Anticancer activity against human HOP-62 cells assessed as cell growth inhibition incubated for 48 hrs by SRB assay; format: functional
HOP-92 = assay: Anticancer activity against human HOP-92 cells assessed as cell growth inhibition incubated for 48 hrs by SRB assay; format: functional; settings: read-out: LC50 (the source's name)
NCI-H226 = assay: Anticancer activity against human NCI-H226 cells assessed as cell growth inhibition incubated for 48 hrs by SRB assay; format: functional; settings: read-out: LC50 (the source's name)
NCI-H23 = assay: Anticancer activity against human NCI-H23 cells assessed as cell growth inhibition incubated for 48 hrs by SRB assay; format: functional
NCI-H322M = assay: Anticancer activity against human NCI-H322M cells assessed as cell growth inhibition incubated for 48 hrs by SRB assay; format: functional; settings: read-out: LC50 (the source's name)
NCI-H460 = assay: Anticancer activity against human NCI-H460 cells assessed as cell growth inhibition incubated for 48 hrs by SRB assay; format: functional
NCI-H522 = assay: Anticancer activity against human NCI-H522 cells assessed as cell growth inhibition incubated for 48 hrs by SRB assay; format: functional; settings: read-out: LC50 (the source's name)
COLO 205 = assay: Anticancer activity against human COLO 205 cells assessed as cell growth inhibition incubated for 48 hrs by SRB assay; format: functional
HCC 2998 [1] = assay: Anticancer activity against human HCC 2998 cells assessed as cell growth inhibition incubated for 48 hrs by SRB assay; format: functional
HCT-116 = assay: Anticancer activity against human HCT-116 cells assessed as cell growth inhibition incubated for 48 hrs by SRB assay; format: functional
HCT-15 = assay: Anticancer activity against human HCT-15 cells assessed as cell growth inhibition incubated for 48 hrs by SRB assay; format: functional
HT-29 = assay: Anticancer activity against human HT-29 cells assessed as cell growth inhibition incubated for 48 hrs by SRB assay; format: functional
KM12 = assay: Anticancer activity against human KM12 cells assessed as cell growth inhibition incubated for 48 hrs by SRB assay; format: functional
SW-620 = assay: Anticancer activity against human SW-620 cells assessed as cell growth inhibition incubated for 48 hrs by SRB assay; format: functional
SF-295 = assay: Anticancer activity against human SF-295 cells assessed as cell growth inhibition incubated for 48 hrs by SRB assay; format: functional; settings: read-out: LC50 (the source's name)
SF-539 = assay: Anticancer activity against human SF-539 cells assessed as cell growth inhibition incubated for 48 hrs by SRB assay; format: functional
SNB-19 = assay: Anticancer activity against human SNB-19 cells assessed as cell growth inhibition incubated for 48 hrs by SRB assay; format: functional; settings: read-out: LC50 (the source's name)
U-251 = assay: Anticancer activity against human U-251 cells assessed as cell growth inhibition incubated for 48 hrs by SRB assay; format: functional
Malme-3M = assay: Anticancer activity against human Malme-3M cells assessed as cell growth inhibition incubated for 48 hrs by SRB assay; format: functional
M14 = assay: Anticancer activity against human M14 cells assessed as cell growth inhibition incubated for 48 hrs by SRB assay; format: functional
MDA-MB-435 = assay: Anticancer activity against human MDA-MB-435 cells assessed as cell growth inhibition incubated for 48 hrs by SRB assay; format: functional
SK-MEL-2 = assay: Anticancer activity against human SK-MEL-2 cells assessed as cell growth inhibition incubated for 48 hrs by SRB assay; format: functional; settings: read-out: LC50 (the source's name)
SK-MEL-28 = assay: Anticancer activity against human SK-MEL-28 cells assessed as cell growth inhibition incubated for 48 hrs by SRB assay; format: functional; settings: read-out: LC50 (the source's name)
SK-MEL-5 [2] = assay: Anticancer activity against human SK-MEL-5 cells assessed as cell growth inhibition incubated for 48 hrs by SRB assay; format: functional
UACC-62 = assay: Anticancer activity against human UACC-62 cells assessed as cell growth inhibition incubated for 48 hrs by SRB assay; format: functional
IGROV-1 = assay: Anticancer activity against human IGROV-1 cells assessed as cell growth inhibition incubated for 48 hrs by SRB assay; format: functional; settings: read-out: LC50 (the source's name)
OVCAR-3 = assay: Anticancer activity against human OVCAR-3 cells assessed as cell growth inhibition incubated for 48 hrs by SRB assay; format: functional
OVCAR-5 = assay: Anticancer activity against human OVCAR-5 cells assessed as cell growth inhibition incubated for 48 hrs by SRB assay; format: functional; settings: read-out: LC50 (the source's name)
NCI/ADR-RES = assay: Anticancer activity against human NCI/ADR-RES cells assessed as cell growth inhibition incubated for 48 hrs by SRB assay; format: functional
786-0 = assay: Anticancer activity against human 786-0 cells assessed as cell growth inhibition incubated for 48 hrs by SRB assay; format: functional
A498 = assay: Anticancer activity against human A498 cells assessed as cell growth inhibition incubated for 48 hrs by SRB assay; format: functional
ACHN = assay: Anticancer activity against human ACHN cells assessed as cell growth inhibition incubated for 48 hrs by SRB assay; format: functional
CAKI-1 = assay: Anticancer activity against human CAKI-1 cells assessed as cell growth inhibition incubated for 48 hrs by SRB assay; format: functional
RXF 393 [3] = assay: Anticancer activity against human RXF 393 cells assessed as cell growth inhibition incubated for 48 hrs by SRB assay; format: functional; settings: read-out: LC50 (the source's name)
SN12C = assay: Anticancer activity against human SN12C cells assessed as cell growth inhibition incubated for 48 hrs by SRB assay; format: functional
TK-10 = assay: Anticancer activity against human TK-10 cells assessed as cell growth inhibition incubated for 48 hrs by SRB assay; format: functional; settings: read-out: LC50 (the source's name)
UO-31 = assay: Anticancer activity against human UO-31 cells assessed as cell growth inhibition incubated for 48 hrs by SRB assay; format: functional; settings: read-out: LC50 (the source's name)
PC-3 = assay: Anticancer activity against human PC-3 cells assessed as cell growth inhibition incubated for 48 hrs by SRB assay; format: functional; settings: read-out: LC50 (the source's name)
DU-145 = assay: Anticancer activity against human DU-145 cells assessed as cell growth inhibition incubated for 48 hrs by SRB assay; format: functional
MCF7 = assay: Anticancer activity against human MCF7 cells assessed as cell growth inhibition incubated for 48 hrs by SRB assay; format: functional
MDA-MB-231 = assay: Anticancer activity against human MDA-MB-231 cells assessed as cell growth inhibition incubated for 48 hrs by SRB assay; format: functional
BT-549 = assay: Anticancer activity against human BT-549 cells assessed as cell growth inhibition incubated for 48 hrs by SRB assay; format: functional; settings: read-out: LC50 (the source's name)
MDA-MB-468 = assay: Anticancer activity against human MDA-MB-468 cells assessed as cell growth inhibition incubated for 48 hrs by SRB assay; format: functional; settings: read-out: LC50 (the source's name)
SK-MEL-5 [4] = assay: Cytotoxicity against human SK-MEL-5 cells assessed as inhibition of cell viability incubated for 72 hrs under hypoxia condition by MTT assay; format: functional, cell-based; settings: SK-MEL-5, 72 h
HCC 2998 [5] = assay: Cytotoxicity against human HCC 2998 cells assessed as inhibition of cell viability incubated for 72 hrs under hypoxia condition by MTT assay; format: functional, cell-based; settings: HCC 2998, 72 h
RXF 393 [6] = assay: Cytotoxicity against human RXF 393 cells assessed as inhibition of cell viability incubated for 72 hrs under hypoxia condition by MTT assay; format: functional, cell-based; settings: RXF 393, 72 h
[7] = read-out: LC50 (the source's name)

For `O=c1[nH]cc(F)c(=O)[nH]1` [FLUOROURACIL], the GI50 (CCRF-CEM) was 9970 nM, the CC50 (CCRF-CEM; [7]) was > 100000 nM and the GI50 (HL-60(TB)) was 2300 nM. The CC50 (HL-60(TB); [7]) was > 100000 nM, the CC50 (K562) was > 100000 nM and the GI50 (MOLT-4) was 350 nM. The CC50 (MOLT-4; [7]) was > 100000 nM, the GI50 (RPMI-8226) was 40 nM and the CC50 (SR) was > 100000 nM. For the same compound, the GI50 (A549) was 180 nM, the CC50 (EKVX) was > 100000 nM and the GI50 (HOP-62) was 390 nM. For the same compound, the CC50 (HOP-62; [7]) was > 100000 nM, the CC50 (HOP-92) was > 100000 nM and the CC50 (NCI-H226) was > 100000 nM. The GI50 (NCI-H23) was 330 nM, the CC50 (NCI-H23; [7]) was > 100000 nM and the CC50 (NCI-H322M) was > 100000 nM. The GI50 (NCI-H460) was 50 nM, the CC50 (NCI-H460; [7]) was > 100000 nM and the CC50 (NCI-H522) was > 100000 nM. The GI50 (COLO 205) was 150 nM, the CC50 (COLO 205; [7]) was > 100000 nM and the GI50 (HCC 2998 [1]) was 50 nM. For the same compound, the CC50 (HCC 2998 [1]; [7]) was > 100000 nM, the GI50 (HCT-116) was 220 nM and the GI50 (HCT-15) was 110 nM. The CC50 (HCT-15; [7]) was > 100000 nM, the GI50 (HT-29) was 170 nM and the CC50 (HT-29; [7]) was > 100000 nM. For the same compound, the GI50 (KM12) was 210 nM, the CC50 (KM12; [7]) was > 100000 nM and the GI50 (SW-620) was 920 nM. The CC50 (SW-620; [7]) was > 100000 nM, the CC50 (SF-295) was > 100000 nM and the GI50 (SF-539) was 60 nM. The CC50 (SF-539; [7]) was > 100000 nM, the CC50 (SNB-19) was > 100000 nM and the GI50 (U-251) was 920 nM. The CC50 (U-251; [7]) was > 100000 nM, the GI50 (Malme-3M) was 50 nM and the CC50 (Malme-3M; [7]) was > 100000 nM. For the same compound, the GI50 (M14) was 980 nM, the CC50 (M14; [7]) was > 100000 nM and the GI50 (MDA-MB-435) was 70 nM. For the same compound, the CC50 (SK-MEL-2) was > 100000 nM, the CC50 (SK-MEL-28) was > 100000 nM and the GI50 (SK-MEL-5 [2]) was 460 nM. The GI50 (UACC-62) was 520 nM, the CC50 (IGROV-1) was > 100000 nM and the GI50 (OVCAR-3) was 10 nM. For the same compound, the CC50 (OVCAR-5) was > 100000 nM, the GI50 (NCI/ADR-RES) was 310 nM and the CC50 (NCI/ADR-RES; [7]) was > 100000 nM. For the same compound, the GI50 (786-0) was 720 nM, the CC50 (786-0; [7]) was > 100000 nM and the GI50 (A498) was 350 nM. For the same compound, the CC50 (A498; [7]) was > 100000 nM, the GI50 (ACHN) was 270 nM and the CC50 (ACHN; [7]) was > 100000 nM. For the same compound, the GI50 (CAKI-1) was 70 nM, the CC50 (CAKI-1; [7]) was > 100000 nM and the CC50 (RXF 393 [3]) was > 100000 nM. The GI50 (SN12C) was 490 nM, the CC50 (TK-10) was > 100000 nM and the CC50 (UO-31) was > 100000 nM. The CC50 (PC-3) was > 100000 nM, the GI50 (DU-145) was 360 nM and the GI50 (MCF7) was 70 nM. The GI50 (MDA-MB-231) was 6600 nM, the CC50 (BT-549) was > 100000 nM and the CC50 (MDA-MB-468) was > 100000 nM. It also gave an IC50 (SK-MEL-5 [4]) of 15300 nM, an IC50 (HCC 2998 [5]) of 12600 nM and an IC50 (RXF 393 [6]) of 28200 nM.
